Source: patent US20260242440A1, “NOVEL MEANS TO MODULATE NMDA RECEPTOR-MEDIATED TOXICITY” (FUNDAMENTAL PHARMA GMBH, priority 2018, published 2026)
“Also recorded” adds a separate entry of the source.

What was measured:
[1] = tested on: primary mouse hippocampal neurons; assay: NMDA induced cell death (excitotoxicity) in cultured primary neurons; assay type: cell-based; conditions: 30 min pre-treatment with 10 μM compound; NMDA 20 μM for 10 min or 24 hours; cell death 24 hours after challenge
NMDA receptor = assay: NMDA-induced calcium transients (Fura2 calcium imaging); assay type: cell-based, mouse; conditions: hippocampal neurons, 6 min NMDA (20 μM) application
Procedure: In a further experiment, the impact of P4 and P15 on NMDA-induced calcium transients was assessed. Briefly, for calcium imaging, primary hippocampal neurons on coverslips were loaded with the cell-permeable, high-affinity ratiometric calcium indicator Fura2-AM (Invitrogen™ F1221), at 1 μM in CO2-independent culture medium (CICM; CICM contains: 10 mM HEPES, 140 mM NaCl, 2.5 mM KCl, 1.0 mM MgCl2, 2.0 mM CaCl2, 1.0 mM Glycine, 35.6 mM Glucose and 0.5 mM Na-pyruvate) for 30 min at 37° C., then washed and left in CICM for another 30 min to allow for de-esterification. Fura2 was excited at 340/11 nm and 380/11 nm, and fluorescence emission was obtained from a 40× UV compatible objective (LUMPLFLN, Olympus) through a 510/20 nm emission filter. For quantification, ImageJ was used to calculate average background-subtracted fluorescence intensities for 340 and 380 nm excitation (F340 and F380) from each neuron. Intracellular calcium levels were plotted as F340/F380 ratios over time, from which the NMDA response amplitude and area under the curve (AUC) was calculated to quantify NMDA-induced calcium influx.

[2] = biological target: T1, NMDA receptor/TRPM4 complex (Mus musculus, UniProt Q7TN37); assay: co-immunoprecipitation of NMDA receptor/TRPM4 complex from mouse cortical lysates after i.p. injection; assay type: in vivo
T1 construct: cortical lysates were obtained from control mice and from mice 2 h, 6 h and 24 h following intraperitoneal injection; from tissue; host or cells: mouse cortex (lysate after i.p. injection of compound P4)
Procedure: In a further experiment it was assessed whether compound P4 has any impact on NMDA receptor/TRPM4 complex formation. For this purpose, co-immunoprecipitation experiments using brain lysates from the mouse cortex where carried out. Briefly, cortical lysates were obtained from control mice and from mice 2 h, 6 h and 24 h following intraperitoneal injection of compound P4 (40 mg/kg) in immunoprecipitation buffer (10 mM Tris, pH 8.0, 150 mM NaCl, 1 mM EDTA, 1% NP-40, 10% glycerol with Protease Inhibitor Cocktail, Roche) for 60 min. The lysate was then centrifuged for 12 min at 1200 g to remove cell debris and nuclei. The mixture of supernatant was incubated with anti-TRPM4 antibodies overnight. Pierce™ Protein A Magnetic Beads were added to the mixture and mixed another 12 h, followed by 3 washes with immunoprecipitation buffer. The precipitates were subsequently boiled in protein loading buffer and separated in 7.5% SDS-PAGE.

[3] = tested on: retinal ganglion cells (RGCs); assay: NMDA-induced degeneration of retinal ganglion cells (RGCs) in mice; assay type: in vivo, mouse; conditions: 40 mg/kg i.p. at -16h, -3h, 0 h, +24 h, intravitreal NMDA 20 nmol, 7 days
Procedure: The inventors also assessed, whether compound P4 can protect retinal ganglion cells against NMDA-induced degeneration. For this purpose, 28 C57BL/6J mice (25±3.5 g) were randomly allocated to two groups. All mice received vehicle (sunflower oil containing 5% ethanol) or P4 (40 mg/kg, dissolved in sunflower oil containing 5% ethanol) through intraperitoneal injection at −16h, −3h, 0 h, +3 h and +24 h in a volume of 50 μL each injection. At 0 h, mice received 20 nmol of NMDA (total volume 2.0 μL) by intravitreal injection in the left eye and saline (total volume 2.0 μL) in the right eye. Both eyes were removed from euthanized mice 7 days after intravitreal injections and fixed in formalin for 15 min before retinas were dissected and processed for whole mount immunostaining. Retinas were incubated in blocking solution (10% FBS, 1% Triton-X 100 in PBS) for 6 h, followed by 24 h incubation with anti-Brn3a antibody in blocking solution at 4° C. Retinas were washed 3 times with PBS and incubated with Donkey anti-rabbit Alexa Fluor-594 for 24 h at room temperature. Retinas were washed again, cut and mounted onto slides. […] Brn3a-positive cells were identified and counted with a macro in Cellprofiler. […]

TRPM4 channel = biological target: T2, TRPM4 channel (Homo sapiens, UniProt Q8TD43); assay: TRPM4 channel function, whole-cell patch clamp in PC3 cells; assay type: cell-based; conditions: 10 μM compound, pre-incubated 30-60 min
T2 construct: PC3 cells are known to express TRPM4 channels; endogenous in cells; host or cells: PC3 prostate cancer cell line
From the text: To assess any direct impact of compound P4 and compound P15 on TRPM4 channel function independent of NMDA receptors, the inventors used the prostate cancer cell line PC3 and patch clamp recordings. PC3 cells are known to express TRPM4 channels (C. Holzmann et al., Oncotarget. 6, 41783-93 (2015)). TRPM4 currents in turn are characterized by their calcium dependence and outward rectification (P. Launay et al., Cell. 109, 397-407 (2002)). Briefly, whole-cell patch clamp recordings were made from PC3 cells plated on 12 mm round coverslips secured with a platinum ring in a recording chamber (OAC-1, Science Products GmbH) mounted on a fixed-stage upright microscope (BX51WI, Olympus). […] Patch electrodes (3-4 MΩ) were made from 1.5 mm borosilicate glass and filled with cesium-based solutions (in mM: CsCl, 145; NaCl, 8; HEPES, 10; MgCl2, 1; plus either EGTA, 0.2 for a free Ca^2+ concentration of zero; or EGTA, 10 and CaCl2), 9.4 for a calculated free Ca^2+ concentration of 10 μM; Maxchelator, Stanford University). Recordings were made with a Multiclamp 700B amplifier, digitized through a Digidata 1550B and acquired and analyzed using pClamp 10 software (Molecular Devices). Access resistance (range: 10-20 MΩ) was monitored regularly during voltage clamp recordings and data was rejected if changes greater than 20% occurred.

T1 sequence (Q7TN37 whole entry, one chain of several): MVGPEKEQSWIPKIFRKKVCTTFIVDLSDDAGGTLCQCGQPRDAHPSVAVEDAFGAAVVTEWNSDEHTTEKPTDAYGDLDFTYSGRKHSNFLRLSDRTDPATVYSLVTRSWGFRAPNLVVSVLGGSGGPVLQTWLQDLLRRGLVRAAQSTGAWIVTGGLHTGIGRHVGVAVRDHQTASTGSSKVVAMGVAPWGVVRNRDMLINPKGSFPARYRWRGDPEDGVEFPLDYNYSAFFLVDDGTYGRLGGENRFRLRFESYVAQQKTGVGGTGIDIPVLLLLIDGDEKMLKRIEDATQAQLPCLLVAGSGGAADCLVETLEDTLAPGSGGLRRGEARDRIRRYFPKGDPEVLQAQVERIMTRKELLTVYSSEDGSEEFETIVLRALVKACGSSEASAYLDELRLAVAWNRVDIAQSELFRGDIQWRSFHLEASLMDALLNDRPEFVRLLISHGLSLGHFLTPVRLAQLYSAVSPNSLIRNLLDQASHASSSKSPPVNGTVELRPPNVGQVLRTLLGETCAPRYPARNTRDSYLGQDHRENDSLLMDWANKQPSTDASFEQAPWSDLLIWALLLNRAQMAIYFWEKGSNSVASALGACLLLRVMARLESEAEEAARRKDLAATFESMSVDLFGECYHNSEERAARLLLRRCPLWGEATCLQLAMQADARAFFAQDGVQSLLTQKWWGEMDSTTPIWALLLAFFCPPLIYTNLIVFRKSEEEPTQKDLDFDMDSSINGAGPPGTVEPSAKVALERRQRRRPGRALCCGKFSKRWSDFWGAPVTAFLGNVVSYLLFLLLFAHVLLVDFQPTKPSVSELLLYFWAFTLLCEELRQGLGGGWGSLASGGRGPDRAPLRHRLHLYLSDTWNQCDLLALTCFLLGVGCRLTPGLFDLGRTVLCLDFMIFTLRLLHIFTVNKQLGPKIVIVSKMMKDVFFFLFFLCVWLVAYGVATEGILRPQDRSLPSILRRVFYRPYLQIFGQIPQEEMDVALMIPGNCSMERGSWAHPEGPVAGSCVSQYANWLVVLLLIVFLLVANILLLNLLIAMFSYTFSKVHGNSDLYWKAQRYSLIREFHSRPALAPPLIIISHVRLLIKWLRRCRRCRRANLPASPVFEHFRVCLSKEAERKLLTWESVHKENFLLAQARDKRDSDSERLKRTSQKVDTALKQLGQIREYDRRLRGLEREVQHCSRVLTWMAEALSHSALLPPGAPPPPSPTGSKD
T2 sequence (Q8TD43 whole entry): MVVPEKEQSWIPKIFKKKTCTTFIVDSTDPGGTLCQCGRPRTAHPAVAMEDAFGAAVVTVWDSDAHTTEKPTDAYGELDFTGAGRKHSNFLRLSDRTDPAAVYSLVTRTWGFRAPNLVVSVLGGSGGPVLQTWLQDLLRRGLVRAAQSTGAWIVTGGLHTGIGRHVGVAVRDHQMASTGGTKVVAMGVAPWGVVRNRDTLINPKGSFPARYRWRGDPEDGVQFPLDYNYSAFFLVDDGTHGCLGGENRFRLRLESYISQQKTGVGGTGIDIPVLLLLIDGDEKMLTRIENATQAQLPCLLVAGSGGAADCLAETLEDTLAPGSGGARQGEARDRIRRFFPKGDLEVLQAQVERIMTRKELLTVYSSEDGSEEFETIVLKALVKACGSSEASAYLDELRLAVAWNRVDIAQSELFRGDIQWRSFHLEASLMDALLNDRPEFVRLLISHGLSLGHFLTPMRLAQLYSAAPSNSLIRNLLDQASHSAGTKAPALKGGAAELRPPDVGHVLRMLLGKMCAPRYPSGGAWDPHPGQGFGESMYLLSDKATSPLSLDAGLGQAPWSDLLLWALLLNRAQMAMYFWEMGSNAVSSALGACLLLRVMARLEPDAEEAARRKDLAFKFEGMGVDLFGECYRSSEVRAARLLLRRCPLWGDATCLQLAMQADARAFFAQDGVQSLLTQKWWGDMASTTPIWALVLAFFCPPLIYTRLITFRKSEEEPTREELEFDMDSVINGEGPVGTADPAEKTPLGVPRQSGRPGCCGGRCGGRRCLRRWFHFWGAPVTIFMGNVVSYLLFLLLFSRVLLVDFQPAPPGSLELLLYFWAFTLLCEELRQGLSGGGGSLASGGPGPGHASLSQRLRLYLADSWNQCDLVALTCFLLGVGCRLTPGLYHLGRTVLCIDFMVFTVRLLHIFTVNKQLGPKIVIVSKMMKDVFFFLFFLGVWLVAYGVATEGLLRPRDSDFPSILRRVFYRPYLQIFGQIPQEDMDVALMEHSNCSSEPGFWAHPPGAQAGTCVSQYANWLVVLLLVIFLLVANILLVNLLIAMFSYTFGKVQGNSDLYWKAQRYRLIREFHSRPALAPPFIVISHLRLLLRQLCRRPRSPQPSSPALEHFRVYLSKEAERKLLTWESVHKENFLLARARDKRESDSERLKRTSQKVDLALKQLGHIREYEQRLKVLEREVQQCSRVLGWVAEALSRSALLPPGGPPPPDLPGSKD

- reduction in NMDA receptor/TRPM4 complex formation ([2]; 2 h after single i.p. injection of 40 mg/kg): 51%
- reduction in NMDA receptor/TRPM4 complex formation ([2]; 6 h after single i.p. injection of 40 mg/kg): 61%
- NMDA receptor/TRPM4 complex formation ([2]; 24 h after i.p. injection of 40 mg/kg): had reformed
SMILES: CCN(CCN)Cc1cccc(Br)c1 [P4]
- NMDA receptor induced cell death (transient and chronic NMDA toxicity) [1]: neuroprotective effect
- NMDA-induced calcium transients (NMDA receptor): neither compound P4 nor compound P15 reduced; also recorded: neither compound P4 nor P15 reduced
- retinal ganglion cell (RGC) degeneration (Brn3a-positive cells) [3]: reduces retinal ganglion cell (RGC) degeneration
- TRPM4-like outwardly rectifying current activated by 10 μM Ca2+ (TRPM4 channel): not affected
